Legend:
[1] = biological target: Purinergic P2Y (Rattus norvegicus) (UniProt O35811+Q9EPX4+P49651+Q63371+P41232+O35881+Q6GUG4); assay: Inhibition of Purinergic P2Y at compound concentration of 10.0 uM in the Eurofins-Panlabs radioligand binding assay (Eurofins_assay_268820); format: protein assay; set-up: ligand concentration 0.1 nM; details: Compound concentration 10.0 uM
[2] = biological target: 5'-AMP-activated protein kinase catalytic subunit alpha-1 (Homo sapiens) (UniProt Q13131); assay: AMPKalpha1(h) Millipore kinase panel; details: Compound concentration 1.0 uM
[3] = biological target: Cyclin-dependent kinase 5/CDK5 activator 1 (Homo sapiens) (UniProt Q00535+Q15078); assay: CDK5/p25(h) Millipore kinase panel; format: protein-complex assay; details: Compound concentration 1.0 uM
[4] = biological target: Serine/threonine-protein kinase Chk2 (Homo sapiens) (UniProt O96017); assay: CHK2(h) Millipore kinase panel; details: Compound concentration 1.0 uM
Serine/threonine-protein kinase Chk2 (Homo sapiens), sequence (O96017 whole entry): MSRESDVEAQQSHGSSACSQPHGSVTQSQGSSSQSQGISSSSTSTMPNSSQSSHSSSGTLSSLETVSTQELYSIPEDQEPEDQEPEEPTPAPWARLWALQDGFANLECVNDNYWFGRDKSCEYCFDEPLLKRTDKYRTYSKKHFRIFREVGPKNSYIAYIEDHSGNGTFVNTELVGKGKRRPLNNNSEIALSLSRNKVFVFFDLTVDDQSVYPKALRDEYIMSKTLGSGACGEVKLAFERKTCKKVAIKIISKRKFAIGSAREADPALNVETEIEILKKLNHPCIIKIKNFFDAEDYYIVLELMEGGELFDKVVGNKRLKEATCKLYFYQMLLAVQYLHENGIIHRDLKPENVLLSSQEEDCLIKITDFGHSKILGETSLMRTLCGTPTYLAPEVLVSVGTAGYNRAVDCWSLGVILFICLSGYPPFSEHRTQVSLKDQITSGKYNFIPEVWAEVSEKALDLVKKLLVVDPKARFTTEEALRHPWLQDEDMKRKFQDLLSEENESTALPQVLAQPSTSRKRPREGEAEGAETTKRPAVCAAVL

[5] = biological target: Dual specificity protein kinase CLK1 (Homo sapiens) (UniProt P49759); assay: CLK1(h) Millipore kinase panel; details: Compound concentration 1.0 uM
[6] = biological target: Proto-oncogene tyrosine-protein kinase Src (Homo sapiens) (UniProt P12931); assay: cSRC(h) Millipore kinase panel; details: Compound concentration 1.0 uM
[7] = biological target: Discoidin domain-containing receptor 2 (Homo sapiens) (UniProt Q16832); assay: DDR2(h) Millipore kinase panel; details: Compound concentration 1.0 uM
[8] = biological target: Receptor tyrosine-protein kinase erbB-2 (Homo sapiens) (UniProt P04626); assay: ErbB2(h) Millipore kinase panel; details: Compound concentration 1.0 uM
[9] = biological target: Fibroblast growth factor receptor 1 (Homo sapiens) (UniProt P11362); assay: FGFR1(h) Millipore kinase panel; details: Compound concentration 1.0 uM
[10] = biological target: Tyrosine-protein kinase HCK (Homo sapiens) (UniProt P08631); assay: Hck(h) activated Millipore kinase panel; details: Compound concentration 1.0 uM
Tyrosine-protein kinase HCK (Homo sapiens), sequence (P08631 2-526 limits assumed): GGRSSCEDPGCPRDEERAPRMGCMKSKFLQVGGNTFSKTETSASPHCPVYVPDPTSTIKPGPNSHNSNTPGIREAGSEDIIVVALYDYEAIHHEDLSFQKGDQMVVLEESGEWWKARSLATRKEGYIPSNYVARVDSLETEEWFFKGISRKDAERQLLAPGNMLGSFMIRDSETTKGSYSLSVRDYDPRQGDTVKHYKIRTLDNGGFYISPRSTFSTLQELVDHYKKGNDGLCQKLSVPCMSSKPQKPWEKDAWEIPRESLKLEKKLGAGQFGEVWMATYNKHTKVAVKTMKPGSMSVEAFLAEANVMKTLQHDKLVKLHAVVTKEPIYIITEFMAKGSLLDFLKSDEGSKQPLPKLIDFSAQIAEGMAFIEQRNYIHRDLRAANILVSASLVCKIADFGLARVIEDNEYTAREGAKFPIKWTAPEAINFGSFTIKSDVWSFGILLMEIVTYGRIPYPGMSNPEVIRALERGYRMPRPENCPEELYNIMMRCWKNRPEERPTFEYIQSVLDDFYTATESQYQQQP

[11] = biological target: Homeodomain-interacting protein kinase 4 (Homo sapiens) (UniProt Q8NE63); assay: HIPK4(h) Millipore kinase panel; details: Compound concentration 1.0 uM
[12] = biological target: Leucine-rich repeat serine/threonine-protein kinase 2 (Homo sapiens) (UniProt Q5S007); assay: LRRK2(h) Millipore kinase panel; details: Compound concentration 1.0 uM
Leucine-rich repeat serine/threonine-protein kinase 2 (Homo sapiens), sequence (Q5S007 whole entry): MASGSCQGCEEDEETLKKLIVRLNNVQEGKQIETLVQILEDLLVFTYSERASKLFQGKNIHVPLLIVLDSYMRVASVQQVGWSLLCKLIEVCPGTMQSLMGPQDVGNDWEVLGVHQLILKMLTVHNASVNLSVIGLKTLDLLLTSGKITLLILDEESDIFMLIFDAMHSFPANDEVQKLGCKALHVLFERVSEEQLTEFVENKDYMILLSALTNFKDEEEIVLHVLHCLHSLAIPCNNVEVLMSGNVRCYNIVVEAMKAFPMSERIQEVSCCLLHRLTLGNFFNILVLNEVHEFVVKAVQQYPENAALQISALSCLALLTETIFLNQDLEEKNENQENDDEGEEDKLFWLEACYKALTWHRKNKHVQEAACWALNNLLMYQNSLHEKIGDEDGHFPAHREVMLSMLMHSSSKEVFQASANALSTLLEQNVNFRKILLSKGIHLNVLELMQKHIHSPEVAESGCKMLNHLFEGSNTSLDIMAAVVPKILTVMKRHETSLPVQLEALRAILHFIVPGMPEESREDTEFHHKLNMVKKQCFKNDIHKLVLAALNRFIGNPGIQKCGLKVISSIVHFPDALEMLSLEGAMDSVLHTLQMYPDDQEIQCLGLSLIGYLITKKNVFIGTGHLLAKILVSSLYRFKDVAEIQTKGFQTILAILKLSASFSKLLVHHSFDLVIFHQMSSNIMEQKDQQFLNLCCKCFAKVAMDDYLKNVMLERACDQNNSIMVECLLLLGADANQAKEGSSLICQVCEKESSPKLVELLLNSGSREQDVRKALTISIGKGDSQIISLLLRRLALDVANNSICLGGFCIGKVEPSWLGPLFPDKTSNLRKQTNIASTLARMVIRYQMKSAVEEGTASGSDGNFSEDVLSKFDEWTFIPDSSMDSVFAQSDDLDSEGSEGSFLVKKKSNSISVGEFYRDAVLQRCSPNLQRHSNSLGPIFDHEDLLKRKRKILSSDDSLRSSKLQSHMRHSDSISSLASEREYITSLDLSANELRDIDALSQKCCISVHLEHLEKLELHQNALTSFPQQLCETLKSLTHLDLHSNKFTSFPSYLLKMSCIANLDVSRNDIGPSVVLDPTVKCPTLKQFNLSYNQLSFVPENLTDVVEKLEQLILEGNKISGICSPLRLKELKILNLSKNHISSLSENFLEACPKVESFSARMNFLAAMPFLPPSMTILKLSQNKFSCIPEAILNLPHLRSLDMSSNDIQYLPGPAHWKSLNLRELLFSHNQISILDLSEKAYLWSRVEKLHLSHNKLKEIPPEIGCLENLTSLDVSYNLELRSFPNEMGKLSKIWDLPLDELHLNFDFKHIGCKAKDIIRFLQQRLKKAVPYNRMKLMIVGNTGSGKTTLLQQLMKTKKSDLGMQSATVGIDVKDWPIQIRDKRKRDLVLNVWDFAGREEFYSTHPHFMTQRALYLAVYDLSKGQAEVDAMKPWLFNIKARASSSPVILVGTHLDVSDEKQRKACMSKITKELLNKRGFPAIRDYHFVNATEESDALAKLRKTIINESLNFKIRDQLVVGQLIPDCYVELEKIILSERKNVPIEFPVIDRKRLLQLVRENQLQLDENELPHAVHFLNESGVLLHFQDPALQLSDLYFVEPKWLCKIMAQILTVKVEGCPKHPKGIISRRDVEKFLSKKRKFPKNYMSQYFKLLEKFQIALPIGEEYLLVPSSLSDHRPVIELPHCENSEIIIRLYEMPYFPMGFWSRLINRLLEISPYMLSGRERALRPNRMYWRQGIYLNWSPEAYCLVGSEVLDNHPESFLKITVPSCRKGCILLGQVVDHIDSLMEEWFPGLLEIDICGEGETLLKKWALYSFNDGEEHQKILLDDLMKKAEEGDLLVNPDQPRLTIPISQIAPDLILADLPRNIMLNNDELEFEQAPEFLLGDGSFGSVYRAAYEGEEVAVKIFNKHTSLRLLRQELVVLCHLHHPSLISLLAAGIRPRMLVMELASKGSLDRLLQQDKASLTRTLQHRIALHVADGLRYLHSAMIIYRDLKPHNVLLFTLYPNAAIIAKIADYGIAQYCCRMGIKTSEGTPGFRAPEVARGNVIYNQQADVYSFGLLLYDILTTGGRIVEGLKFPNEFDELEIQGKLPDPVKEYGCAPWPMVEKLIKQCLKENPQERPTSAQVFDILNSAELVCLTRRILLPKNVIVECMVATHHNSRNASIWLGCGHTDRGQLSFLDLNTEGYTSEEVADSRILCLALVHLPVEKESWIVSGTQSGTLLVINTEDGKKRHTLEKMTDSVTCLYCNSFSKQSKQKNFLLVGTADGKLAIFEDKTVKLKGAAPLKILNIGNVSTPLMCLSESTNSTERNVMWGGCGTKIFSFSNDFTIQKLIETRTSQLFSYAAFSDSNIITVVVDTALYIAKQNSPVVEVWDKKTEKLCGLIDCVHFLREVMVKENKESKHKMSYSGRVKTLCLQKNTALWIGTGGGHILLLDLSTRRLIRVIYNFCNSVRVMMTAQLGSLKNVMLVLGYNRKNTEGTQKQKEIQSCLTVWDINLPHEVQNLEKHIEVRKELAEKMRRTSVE

[13] = biological target: Serine/threonine-protein kinase MAK (Homo sapiens) (UniProt P20794); assay: MAK(h) Millipore kinase panel; details: Compound concentration 1.0 uM
[14] = biological target: Dual specificity mitogen-activated protein kinase kinase 1 (Homo sapiens) (UniProt Q02750); assay: MEK1(h) Millipore kinase panel; details: Compound concentration 1.0 uM
[15] = biological target: Mitogen-activated protein kinase kinase kinase 21 (Homo sapiens) (UniProt Q5TCX8); assay: MLK4(h) Millipore kinase panel; details: Compound concentration 1.0 uM
[16] = biological target: Serine/threonine-protein kinase Nek7 (Homo sapiens) (UniProt Q8TDX7); assay: NEK7(h) Millipore kinase panel; details: Compound concentration 1.0 uM
[17] = biological target: Serine/threonine-protein kinase NIM1 (Homo sapiens) (UniProt Q8IY84); assay: NIM1(h) Millipore kinase panel; details: Compound concentration 1.0 uM
[18] = biological target: PAS domain-containing serine/threonine-protein kinase (Homo sapiens) (UniProt Q96RG2); assay: PASK(h) Millipore kinase panel; details: Compound concentration 1.0 uM
[19] = biological target: Phosphatidylinositol 3-kinase C2 domain-containing subunit gamma (Homo sapiens) (UniProt O75747); assay: PI3KC2g(h) Millipore kinase panel; details: Compound concentration 1.0 uM
[20] = biological target: Phosphatidylinositol 4-phosphate 5-kinase type-1 gamma (Homo sapiens) (UniProt O60331); assay: PIP5K1g(h) Millipore kinase panel; details: Compound concentration 1.0 uM
[21] = biological target: RAC-gamma serine/threonine-protein kinase (Homo sapiens) (UniProt Q9Y243); assay: PKBgamma(h) Millipore kinase panel; details: Compound concentration 1.0 uM
[22] = biological target: Protein kinase C beta type (Homo sapiens) (UniProt P05771); assay: PKCbetaI(h) Millipore kinase panel; details: Compound concentration 1.0 uM
[23] = biological target: Serine/threonine-protein kinase D2 (Homo sapiens) (UniProt Q9BZL6); assay: PKD2(h) Millipore kinase panel; details: Compound concentration 1.0 uM
[24] = biological target: Interferon-induced, double-stranded RNA-activated protein kinase (Homo sapiens) (UniProt P19525); assay: PKR(h) Millipore kinase panel; details: Compound concentration 1.0 uM
[25] = biological target: Serine/threonine-protein kinase PLK1 (Homo sapiens) (UniProt P53350); assay: Plk1(h) Millipore kinase panel; details: Compound concentration 1.0 uM
[26] = biological target: Serine/threonine-protein kinase PRP4 homolog (Homo sapiens) (UniProt Q13523); assay: PRP4(h) Millipore kinase panel; details: Compound concentration 1.0 uM
Serine/threonine-protein kinase PRP4 homolog (Homo sapiens), sequence (Q13523 whole entry): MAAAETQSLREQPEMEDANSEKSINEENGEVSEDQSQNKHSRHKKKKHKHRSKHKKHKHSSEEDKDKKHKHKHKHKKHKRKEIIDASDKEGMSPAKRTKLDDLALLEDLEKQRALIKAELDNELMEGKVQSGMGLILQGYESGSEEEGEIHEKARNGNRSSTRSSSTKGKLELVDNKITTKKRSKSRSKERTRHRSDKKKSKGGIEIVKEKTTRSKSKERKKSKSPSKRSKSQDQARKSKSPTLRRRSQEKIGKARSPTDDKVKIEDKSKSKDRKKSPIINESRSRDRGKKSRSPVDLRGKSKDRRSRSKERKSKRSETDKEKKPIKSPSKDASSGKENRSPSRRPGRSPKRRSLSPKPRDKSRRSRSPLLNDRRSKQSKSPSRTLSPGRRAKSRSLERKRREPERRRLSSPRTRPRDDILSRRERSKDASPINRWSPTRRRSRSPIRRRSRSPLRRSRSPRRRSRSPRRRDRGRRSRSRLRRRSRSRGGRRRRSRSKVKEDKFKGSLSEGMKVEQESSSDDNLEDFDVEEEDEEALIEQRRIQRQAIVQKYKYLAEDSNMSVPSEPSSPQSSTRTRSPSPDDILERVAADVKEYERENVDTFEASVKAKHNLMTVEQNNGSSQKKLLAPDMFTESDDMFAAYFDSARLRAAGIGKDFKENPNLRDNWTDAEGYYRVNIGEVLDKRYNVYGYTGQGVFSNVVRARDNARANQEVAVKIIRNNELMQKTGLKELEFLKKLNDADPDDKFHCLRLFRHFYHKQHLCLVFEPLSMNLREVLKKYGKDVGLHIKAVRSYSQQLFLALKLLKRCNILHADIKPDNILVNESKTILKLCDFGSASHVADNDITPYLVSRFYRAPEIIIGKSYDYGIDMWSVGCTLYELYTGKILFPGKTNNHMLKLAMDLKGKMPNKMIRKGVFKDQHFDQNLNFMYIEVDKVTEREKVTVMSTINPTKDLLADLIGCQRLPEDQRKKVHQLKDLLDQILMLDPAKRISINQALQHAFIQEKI

[27] = biological target: Rho-associated protein kinase 1 (Homo sapiens) (UniProt Q13464); assay: ROCK-I(h) Millipore kinase panel; details: Compound concentration 1.0 uM
[28] = biological target: Serine/threonine-protein kinase SIK3 (Homo sapiens) (UniProt Q9Y2K2); assay: SIK3(h) Millipore kinase panel; details: Compound concentration 1.0 uM
[29] = biological target: SNF-related serine/threonine-protein kinase (Homo sapiens) (UniProt Q9NRH2); assay: SNRK(h) Millipore kinase panel; details: Compound concentration 1.0 uM
[30] = biological target: Serine/threonine-protein kinase TAO1 (Homo sapiens) (UniProt Q7L7X3); assay: TAO1(h) Millipore kinase panel; details: Compound concentration 1.0 uM
[31] = biological target: Serine/threonine-protein kinase TAO3 (Homo sapiens) (UniProt Q9H2K8); assay: TAO3(h) Millipore kinase panel; details: Compound concentration 1.0 uM
[32] = biological target: Tribbles homolog 2 (Homo sapiens) (UniProt Q92519); assay: TRB2(h) Millipore kinase panel; details: Compound concentration 1.0 uM
Tribbles homolog 2 (Homo sapiens), sequence (Q92519 whole entry): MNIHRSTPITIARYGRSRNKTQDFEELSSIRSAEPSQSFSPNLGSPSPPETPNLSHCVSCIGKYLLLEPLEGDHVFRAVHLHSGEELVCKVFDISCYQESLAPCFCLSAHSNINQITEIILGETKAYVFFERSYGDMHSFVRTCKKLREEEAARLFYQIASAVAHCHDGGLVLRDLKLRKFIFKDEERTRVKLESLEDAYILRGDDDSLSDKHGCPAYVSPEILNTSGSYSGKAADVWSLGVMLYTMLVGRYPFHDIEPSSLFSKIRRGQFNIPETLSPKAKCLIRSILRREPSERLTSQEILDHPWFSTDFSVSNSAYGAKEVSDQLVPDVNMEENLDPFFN

[33] = biological target: BDNF/NT-3 growth factors receptor (Homo sapiens) (UniProt Q16620); assay: TrkB(h) Millipore kinase panel; details: Compound concentration 1.0 uM
[34] = biological target: Testis-specific serine/threonine-protein kinase 1 (Homo sapiens) (UniProt Q9BXA7); assay: TSSK1(h) Millipore kinase panel; details: Compound concentration 1.0 uM
[35] = biological target: Serine/threonine-protein kinase ULK1 (Homo sapiens) (UniProt O75385); assay: ULK1(h) Millipore kinase panel; details: Compound concentration 1.0 uM
[36] = biological target: Serine/threonine-protein kinase WNK3 (Homo sapiens) (UniProt Q9BYP7); assay: WNK3(h) Millipore kinase panel; details: Compound concentration 1.0 uM
[37] = biological target: Cyclin-dependent kinase 14/Cyclin-Y (Homo sapiens) (UniProt O94921+Q8ND76); assay: CDK14/cyclinY(h) Millipore kinase panel; format: protein-complex assay; details: Compound concentration 1.0 uM
[38] = biological target: Cyclin-dependent kinase 1/cyclin B (Homo sapiens) (UniProt P06493+P14635+Q8WWL7+O95067); assay: CDK1/cyclinB(h) Millipore kinase panel; format: protein-complex assay; details: Compound concentration 1.0 uM
[39] = biological target: 5-hydroxytryptamine receptor 1E (Homo sapiens) (UniProt P28566); details: Compound concentration 10.0 uM
[40] = biological target: 5-hydroxytryptamine receptor 3A (Homo sapiens) (UniProt P46098); details: Compound concentration 10.0 uM
[41] = biological target: Histamine H4 receptor (Homo sapiens) (UniProt Q9H3N8); details: Compound concentration 10.0 uM
[42] = biological target: Mu-type opioid receptor (Homo sapiens) (UniProt P35372); details: Compound concentration 10.0 uM
[43] = biological target: Sodium-dependent noradrenaline transporter (Homo sapiens) (UniProt P23975); details: Compound concentration 10.0 uM
[44] = biological target: Muscarinic acetylcholine receptor M4 (Homo sapiens) (UniProt P08173); details: Compound concentration 10.0 uM
[45] = biological target: Type-1 angiotensin II receptor (Homo sapiens) (UniProt P30556); details: Compound concentration 10.0 uM
[46] = biological target: Glutamate receptor ionotropic, kainate (Rattus norvegicus) (UniProt P22756+Q01812+P42260+P42264+Q63273); details: Compound concentration 10.0 uM
[47] = biological target: Motilin receptor (Homo sapiens) (UniProt O43193); details: Compound concentration 10.0 uM

Measured: inhibition

CC[C@@H](Nc1c(C#N)c(-c2ccc(-c3cccc(C)c3F)cc2)nc2cnccc12)C(=O)O [BAY-091]
inactive: [1] 31% | [2] -1.91% | [3] 6.65% | [4] 5.38% | [5] 3.74% | [6] 7.51% | [7] 16.3% | [8] 8.53% | [9] 6.44% | [10] -6.21% | [11] 15.7% | [12] 12.9% | [13] 9.23% | [14] 21.5% | [15] 9.6% | [16] 5.49% | [17] 12% | [18] 11.1% | [19] 25.4% | [20] 1.51% | [21] 9.92% | [22] 16.5% | [23] 4.37% | [24] 13.9% | [25] 4.29% | [26] 18.9% | [27] -2.77% | [28] 5.14% | [29] 10.3% | [30] 1.92% | [31] 2.25% | [32] 0.49% | [33] 2.08% | [34] 14.2% | [35] 14.2% | [36] -1.89% | [37] 18.1% | [38] 8.82% | [39] 17.2% | [40] 7.39% | [41] 15.8% | [42] 13% | [43] 25% | [44] 6% | [45] 22% | [46] -2% | [47] -2%

Source: ChEMBL document CHEMBL4800729 (2021)
